Assays:
[1] = tested on: bananas; test: Color change of bananas after ethylene mediated ripening treatment (colorimeter); type: in vivo; settings: banana surface color after ripening treatment (48 hours)
Description: (§1) The color change of the produce was measured using a Minolta colorimeter (Minolta Co. Ltd, Japan). The L values reported were means of 12 readings; three readings from each side of each of the bananas, and two readings per avocado. For bananas, ‘a’ was an indicator of green, and higher ‘a’ value meant less green; ‘b’ was an indicator of yellow, and higher ‘b’ value meant more yellow. For avocados, the degree of browning was expressed by the percent decrease in the L value calculated by subtracting the L value of treated and control samples measured at evaluation times from the time zero L value obtained from untreated samples measured immediately after cutting, divided by the time zero value and multiplied by 100.

[2] = tested on: avocados; test: Color change of avocados after ethylene mediated ripening treatment (colorimeter); type: in vivo, avocado
Description: as §1

[3] = tested on: avocados; settings: after 48 hours of treatment
Description: (§2) Each measurement was repeated at least three times. […] Five replicates were measured for each measurement.
(§3) Tensile Property. […] At least five replicates were measured for each treatment.

[4] = tested on: climacteric produce; test: Controlled ripening of climacteric produce; type: in vivo
Description: Avacados and grocery bananas (pretreated at warehouse or retail facility) were acquired directly from local supermarket, and ‘non-gassed’ bananas were directly purchased from local produce distribution center (Coastal Sunbelt, Jessup, Md.).

[5] = tested on: bananas; test: Texture (tensile property, firmness) of bananas after ripening treatment; type: in vivo, banana
Description: as §2, §3

[6] = avocado surface color after ripening treatment (48 hours)

For `C=C` [ethylene], the L [1] was 66.74 ± 0.77, the c [1] was 45.80 ± 4.64 and the h [1] was 92.08 ± 0.83. For the same molecule, the a ([1]; higher a = less green) was −1.66 ± 0.57, the b ([1]; higher b = more yellow) was 45.77 ± 4.60 and the “skin color of avocado” value ([2]; after treatment, in words) was “darkened slightly”. The L [2, 6] was 30.17 ± 0.23, the a [2, 6] was −1.31 ± 3.01 and the b [2, 6] was 13.54 ± 1.66. For the same molecule, the c [2, 6] was 13.60 ± 3.44, the h [2, 6] was 95.53 ± 0.29 and the avocado flesh texture [3] was “softened significantly”. For the same molecule, the “ripening state of samples” value ([4]; after 48 hours of treatment) was “fully ripened”, the “total ripening time required” value ([4]; versus no ethylene treatment) was “reduced by a half” and the “Young's modulus (initial slope): change of elasticity of bananas” value [5] was “less elastic and more viscous”.
